In the oligonucleotide strings, read from the 5' end, every base follows the letter of its sugar. An asterisk marks phosphorothioate; unmarked linkages are phosphodiester. Other units and linkages are bracketed, terminal groups are in braces. A string of capitals states the bases alone. e = 2'-O-(2-methoxyethyl) (MOE); [5mC] = 5-methylcytosine; d = 2'-deoxy (DNA)
Test system: human apolipoprotein B mRNA
Assay: Inhibition of human apolipoprotein B mRNA levels in HepG2 cells, quantitative real-time PCR
Type: cell-based
Settings: Table 11 gene walk; HepG2 cells, 50 nM; averages from two experiments
Method in brief: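 Apolipoprotein B transcript was quantified by one-step TaqMan RT-PCR, normalized to GAPDH or RiboGreen RNA, and expressed as percent inhibition against an untreated-sample standard curve. HepG2 cells were harvested 16-24 h after oligonucleotide exposure, which was delivered with 3.75 μg/mL Lipofectin over 4-7 h at 80% confluency.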

Substance | % INHIB 50 nm [%]
308610 (eA*e[5mC]*e[5mC]*eA*eG*d[5mC]*d[5mC]*dA*d[5mC]*dA*dT*dG*d[5mC]*dA*dG*e[5mC]*eT*eT*e[5mC]*eA; antisense) [compound 308610] | 40
308611 (eT*eT*eA*e[5mC]*e[5mC]*dA*dG*d[5mC]*d[5mC]*dA*d[5mC]*dA*dT*dG*d[5mC]*eA*eG*e[5mC]*eT*eT; antisense) [compound 308611] | 59
308612 (eG*eG*eT*eT*eA*d[5mC]*d[5mC]*dA*dG*d[5mC]*d[5mC]*dA*d[5mC]*dA*dT*eG*e[5mC]*eA*eG*e[5mC]; antisense) [compound 308612] | 75
308613 (eT*eA*eG*eG*eT*dT*dA*d[5mC]*d[5mC]*dA*dG*d[5mC]*d[5mC]*dA*d[5mC]*eA*eT*eG*e[5mC]*eA; antisense) [compound 308613] | 43
308614 (eT*eT*eT*eA*eG*dG*dT*dT*dA*d[5mC]*d[5mC]*dA*dG*d[5mC]*d[5mC]*eA*e[5mC]*eA*eT*eG; antisense) [compound 308614] | 74
308615 (e[5mC]*eT*eT*eT*eT*dA*dG*dG*dT*dT*dA*d[5mC]*d[5mC]*dA*dG*e[5mC]*e[5mC]*eA*e[5mC]*eA; antisense) [compound 308615] | 45
308616 (eT*e[5mC]*e[5mC]*eT*eT*dT*dT*dA*dG*dG*dT*dT*dA*d[5mC]*d[5mC]*eA*eG*e[5mC]*e[5mC]*eA; antisense) [compound 308616] | 39
308617 (eG*e[5mC]*eT*e[5mC]*e[5mC]*dT*dT*dT*dT*dA*dG*dG*dT*dT*dA*e[5mC]*e[5mC]*eA*eG*e[5mC]; antisense) [compound 308617] | 77
308618 (eA*eG*eG*e[5mC]*eT*d[5mC]*d[5mC]*dT*dT*dT*dT*dA*dG*dG*dT*eT*eA*e[5mC]*e[5mC]*eA; antisense) [compound 308618] | 61
308619 (eG*eT*eA*eG*eG*d[5mC]*dT*d[5mC]*d[5mC]*dT*dT*dT*dT*dA*dG*eG*eT*eT*eA*e[5mC]; antisense) [compound 308619] | 69
308620 (eT*eG*eG*eT*eA*dG*dG*d[5mC]*dT*d[5mC]*d[5mC]*dT*dT*dT*dT*eA*eG*eG*eT*eT; antisense) [compound 308620] | 69
308621 (eT*eT*eT*eG*eG*dT*dA*dG*dG*d[5mC]*dT*d[5mC]*d[5mC]*dT*dT*eT*eT*eA*eG*eG; antisense) [compound 308621] | 56

Same assay, conditions: Table 11 gene walk; HepG2 cells, 150 nM; averages from two experiments

Substance | % INHIB 150 nm [%]
308610 (eA*e[5mC]*e[5mC]*eA*eG*d[5mC]*d[5mC]*dA*d[5mC]*dA*dT*dG*d[5mC]*dA*dG*e[5mC]*eT*eT*e[5mC]*eA; antisense) [compound 308610] | 90
308611 (eT*eT*eA*e[5mC]*e[5mC]*dA*dG*d[5mC]*d[5mC]*dA*d[5mC]*dA*dT*dG*d[5mC]*eA*eG*e[5mC]*eT*eT; antisense) [compound 308611] | 95
308612 (eG*eG*eT*eT*eA*d[5mC]*d[5mC]*dA*dG*d[5mC]*d[5mC]*dA*d[5mC]*dA*dT*eG*e[5mC]*eA*eG*e[5mC]; antisense) [compound 308612] | 90
308613 (eT*eA*eG*eG*eT*dT*dA*d[5mC]*d[5mC]*dA*dG*d[5mC]*d[5mC]*dA*d[5mC]*eA*eT*eG*e[5mC]*eA; antisense) [compound 308613] | 87
308614 (eT*eT*eT*eA*eG*dG*dT*dT*dA*d[5mC]*d[5mC]*dA*dG*d[5mC]*d[5mC]*eA*e[5mC]*eA*eT*eG; antisense) [compound 308614] | 92
308615 (e[5mC]*eT*eT*eT*eT*dA*dG*dG*dT*dT*dA*d[5mC]*d[5mC]*dA*dG*e[5mC]*e[5mC]*eA*e[5mC]*eA; antisense) [compound 308615] | 85
308616 (eT*e[5mC]*e[5mC]*eT*eT*dT*dT*dA*dG*dG*dT*dT*dA*d[5mC]*d[5mC]*eA*eG*e[5mC]*e[5mC]*eA; antisense) [compound 308616] | 81
308617 (eG*e[5mC]*eT*e[5mC]*e[5mC]*dT*dT*dT*dT*dA*dG*dG*dT*dT*dA*e[5mC]*e[5mC]*eA*eG*e[5mC]; antisense) [compound 308617] | 87
308618 (eA*eG*eG*e[5mC]*eT*d[5mC]*d[5mC]*dT*dT*dT*dT*dA*dG*dG*dT*eT*eA*e[5mC]*e[5mC]*eA; antisense) [compound 308618] | 77
308619 (eG*eT*eA*eG*eG*d[5mC]*dT*d[5mC]*d[5mC]*dT*dT*dT*dT*dA*dG*eG*eT*eT*eA*e[5mC]; antisense) [compound 308619] | 74
308620 (eT*eG*eG*eT*eA*dG*dG*d[5mC]*dT*d[5mC]*d[5mC]*dT*dT*dT*dT*eA*eG*eG*eT*eT; antisense) [compound 308620] | 88
308621 (eT*eT*eT*eG*eG*dT*dA*dG*dG*d[5mC]*dT*d[5mC]*d[5mC]*dT*dT*eT*eT*eA*eG*eG; antisense) [compound 308621] | 91

Same assay, conditions: Table 13 gene walk; HepG2 cells, 50 nM; averages from two experiments

Substance | % INHIB 50 nm [%]
308622 (eG*e[5mC]*e[5mC]*eT*eT*d[5mC]*dT*dG*d[5mC]*dT*dT*dG*dA*dG*dT*eT*eA*e[5mC]*eA*eA; antisense) [compound 308622] | 25

Same assay, conditions: Table 13 gene walk; HepG2 cells, 150 nM; averages from two experiments

Substance | % INHIB 150 nm [%]
308622 (eG*e[5mC]*e[5mC]*eT*eT*d[5mC]*dT*dG*d[5mC]*dT*dT*dG*dA*dG*dT*eT*eA*e[5mC]*eA*eA; antisense) [compound 308622] | 87

Same assay, conditions: Table 15; HepG2 cells, 150 nM; averages from two experiments

Substance | % INHIB [%]
301220 (antisense eA*eG*eA*eG*eG*dT*dT*dT*dT*dG*d[5mC]*dT*dG*dT*dG*e[5mC]*e[5mC]*eA*eG*eA) [compound 301220] | 51
301221 (antisense e[5mC]*eT*eA*eG*eA*dG*dG*dT*dT*dT*dT*dG*d[5mC]*dT*dG*eT*eG*e[5mC]*e[5mC]*eA) [compound 301221] | 61
301222 (antisense eT*e[5mC]*eT*eA*eG*dA*dG*dG*dT*dT*dT*dT*dG*d[5mC]*dT*eG*eT*eG*e[5mC]*e[5mC]) [compound 301222] | 14
301223 (antisense eA*eA*eT*e[5mC]*eA*d[5mC]*dA*d[5mC]*dT*dA*dT*dG*dT*dG*dT*eT*e[5mC]*eT*eA*eG) [compound 301223] | 26
301224 (antisense eA*eA*eA*eT*e[5mC]*dA*d[5mC]*dA*d[5mC]*dT*dA*dT*dG*dT*dG*eT*eT*e[5mC]*eT*eA) [compound 301224] | 33
301225 (antisense eT*eA*eA*eA*eT*d[5mC]*dA*d[5mC]*dA*d[5mC]*dT*dA*dT*dG*dT*eG*eT*eT*e[5mC]*eT) [compound 301225] | 3
301226 (antisense e[5mC]*eT*eT*eA*eA*dA*dT*d[5mC]*dA*d[5mC]*dA*d[5mC]*dT*dA*dT*eG*eT*eG*eT*eT) [compound 301226] | 39
301227 (antisense eT*eA*eT*eT*e[5mC]*dT*dG*dT*dT*dA*d[5mC]*dT*dT*dA*dA*eA*eT*e[5mC]*eA*e[5mC]) [compound 301227] | 23

Source: patent publication US7803930B2, “Antisense modulation of apolipoprotein B-expression” (Isis Pharmaceuticals, Inc., priority 2002, dated 2010)
